This test deals with T1, Tyrosine-protein phosphatase non-receptor type 1 [1-321] (Homo sapiens, UniProt P18031).
T1 construct: 1-321
T1 sequence (P18031 whole entry): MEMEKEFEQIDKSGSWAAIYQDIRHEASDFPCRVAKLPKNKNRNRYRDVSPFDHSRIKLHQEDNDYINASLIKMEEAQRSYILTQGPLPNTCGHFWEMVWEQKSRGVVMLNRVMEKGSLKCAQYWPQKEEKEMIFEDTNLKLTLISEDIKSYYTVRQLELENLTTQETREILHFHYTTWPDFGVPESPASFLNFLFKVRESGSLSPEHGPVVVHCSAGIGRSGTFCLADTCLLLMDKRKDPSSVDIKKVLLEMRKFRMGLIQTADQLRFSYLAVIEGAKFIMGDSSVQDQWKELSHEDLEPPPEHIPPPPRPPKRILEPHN
The test is described as follows: PTP1B Activity Assay. Conditions: pH 7.5; 37 °C. The method, then:
PTP1B was diluted before the experiment to 1.2 μg/mL in Tris buffer, pH7.6 (10 mM Tris, 1.0 mM EDTA, 3.0 mM DTT, 0.01% w/v NaN3). The tested compounds were dissolved in DMSO. The enzyme reaction buffer was Tris buffer, pH 7.5 (50 mM Tris, 0.15 M NaCl, 3 mM DTT). A typical 10 μL of tested compounds was added to the enzyme solution (50 μL), and the resulting mixture was preincubated at 37°C for 30 min. The enzyme reaction was initiated by the addition of 8 mM p-NPP (40 μL).

With `O=C(O)/C=C/c1ccc(O)cc1` [p-Coumaric Acid], the half-inhibitory concentration (IC50) (commonly the concentration needed to halve the response being measured) stood at 168 µM.
The value for `O=C(O)/C=C/c1ccccc1O` [(2E)-3-(2-hydroxyphenyl)prop-2-enoic acid] was 138 µM.
